For assay [1], the system named is human RPE cells. As to the method:
Cell viability. Cell viability measurements were performed using the CellTiter 96 AQueous One Solution Cell Proliferation Assay (Promega) in according to the manufacturer's instructions.
Cell culture. All cell cultures were maintained at 37° C. and 5% CO2. Primary mouse RPE cells were isolated as previously described (Yang et al., 2009) and grown in Dulbecco Modified Eagle Medium (DMEM) supplemented with 20% FBS and standard antibiotics concentrations. Primary human RPE cells were isolated as previously described (Yang et al., 2008) and maintained in DMEM supplemented with 10% FBS and antibiotics. HeLa cells were maintained in DMEM supplemented with 20% FBS and standard antibiotics concentrations. THP-1 cells were cultured in RPMI 1640 medium supplemented with 10% FBS and antibiotics.
Transient transfection. Human or mouse RPE cells were transfected with pUC19, pAlu, pCDNA3.1/Dicer-FLAG, pCDNA3.1, Alu RNA, NLRP3 siRNA sense, PYCARD siRNA sense, MyD88 siRNA sense, DICER1 antisense oligonucleotide (AS), control (for DICER1) AS, Alu AS, and control (for Alu) AS using Lipofectamine 2000 (Invitrogen) according to the manufacturer's instructions.
Cell viability. MTS assays were performed using the CellTiter 96 AQueous One Solution Cell Proliferation Assay (Promega) according to the manufacturer's instructions. For examining the cytoprotective effect of glycine in Alu RNA induced cell death, human RPE cells were transfected with pNull/pAlu. At 6 h post-transfection the cells were incubated with complete media containing glycine (5 mM) or vehicle, and cell viability was assessed after 24 h. Similarly, human RPE cells primed with LPS (5 μg/ml for 6 h) were treated with ATP (25 μM) in the presence of glycine containing media (5 mM). 30 min post ATP cell viability was assessed as described above.

For assay [2], the system named is Dicer1f/f mouse RPE cells. The assay is described as follows: Cell viability of Dicer1f/f mouse RPE cells treated with Ad-Cre. It is filed as cell-based. The protocol: Adenoviral infection. Cells were plated at density of 15×10^3/cm^2 and after 16 h, at approximately 50% confluence, were infected with AdCre or AdNull (Vector Laboratories) with a multiplicity of infection of 1,000.

The test system of assay [3] is Caspase-3. The assay is described as follows: Caspase-3 activation in the RPE of wild-type mice. Particulars: inhibitor intravitreous. It is filed as in vivo. The protocol: Drug treatments. siRNAs formulated in siRNA buffer (20 mM KCL, 0.2 mM MgCl2 in HEPES buffer at pH 7.5; Dharmacon) or phosphate buffered saline (PBS; Sigma-Aldrich); the TLR4 antagonist Ultra Pure Rhodobacter sphaeroides LPS (LPS-RS, InvivoGen), a peptide inhibitor of MyD88 homodimerization IMG-2005 (IMGENEX), control inhibitor (IMGENEX), recombinant IL-18 (Medical & Biological Laboratories), neutralizing rat antibodies against mouse IL-1β (IMGENEX), neutralizing rat antibodies against mouse IL-18 (Medical & Biological Laboratories), isotype control IgGs (R&D Systems or eBioscience as appropriate), Caspase-1 inhibitor Z-WEHD-FMK (R&D Systems), Caspase-3 inhibitor Z-DEVD-FMK (R&D Systems), Caspase control inhibitor Z-FA-FMK (R&D Systems), (2R,4R)-APDC (Enzo Life Sciences), Glipizide (Sigma-Aldrich), Glyburide (Sigma-Aldrich), and P2X7 receptor antagonist A438079 (Tocris Bioscience) were dissolved in phosphate buffered saline (PBS; Sigma-Aldrich) or dimethyl sulfoxide (DMSO; Sigma-Aldrich), and injected into the vitreous humor in a total volume of 1 μL with a 33-gauge Exmire microsyringe (Ito Corporation). […] As a control, Luc siRNA-chol (17+2 nt) was used with identical dosages.
Caspase-3 activity. The caspase-3 activity was measured using Caspase-3 Fluorimetric Assay (R&D Systems) according to the manufacturer's instruction.

With “MyD88 inhibitory peptide: peptide inhibitor of MyD88 homodimerization IMG-2005 (IMGENEX)”, the “cell death in human RPE cells treated with antisense oligonucleotides targeting DICER1” value in assay [1] (DICER1 AS) is given as “prevented cell death”. For the same substance, the “pAlu-induced human RPE cell death (loss of cell viability)” value in assay [1] (human RPE cells transfected with pAlu) is “inhibited cell death”. In assay [2], the “cell death in Dicer1f/f mouse RPE cells treated with adenoviral vector coding for Cre recombinase” value is listed as “prevented cell death”. For the same substance, the “Alu RNA-induced Caspase-3 activation in the RPE” value in assay [3] is “inhibited”.

Source of the values: patent publication US11730743B2, “Protection of cells from degeneration and treatment of geographic atrophy” (University of Kentucky Research Foundation, priority 2012, dated 2023).
